Structures are written as SMILES. Values after ≈ are worked out from the molar mass of the structure shown.

The subject of the first assay is PANC-1 (pancreatic cancer) cells. In words: MTT cell growth inhibition, solid tumor cells. It counts as cell-based, human. The conditions noted are these: Homo sapiens; PANC-1, 72 h, MTT; read-out: IC90. Summed up: (§1)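 Exposure lasted 72 h, following 24 h growth of 6000 cells/well in DMEM high glucose containing 10% FBS at 37 °C in 5% CO2; endpoint was MTT-based viable cell concentration across tested compound concentrations.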
For `C=CCN(C)CC(O)COc1c(OC)cc2c3c1Oc1cc4c(cc1OC)CCN(C)[C@H]4Cc1ccc(cc1)Oc1cc(ccc1OC)C[C@@H]3N(C)CC2` (stereo partly drawn) [BS-FC-409], the concentration for an effect of 90% (IC90) was determined as 7.14 µg/mL (≈ 9.7 µM).

A further assay relates to PC-3 (prostate cancer) cells. In words: MTT cell growth inhibition, solid tumor cells. It counts as cell-based, human. Particulars: Homo sapiens; PC-3, 72 h, MTT; read-out: IC50. In outline:
as §1
For `C=CCN(C)CC(O)COc1c(OC)cc2c3c1Oc1cc4c(cc1OC)CCN(C)[C@H]4Cc1ccc(cc1)Oc1cc(ccc1OC)C[C@@H]3N(C)CC2` (stereo partly drawn) [BS-FC-409], the half-inhibitory concentration (IC50) was 2.89 µg/mL (≈ 3.93 µM).

Still in this assay, the particulars now being: Homo sapiens; PC-3, 72 h, MTT; read-out: IC90.
As for `C=CCN(C)CC(O)COc1c(OC)cc2c3c1Oc1cc4c(cc1OC)CCN(C)[C@H]4Cc1ccc(cc1)Oc1cc(ccc1OC)C[C@@H]3N(C)CC2` (stereo partly drawn) [BS-FC-409], the 90% effect concentration (IC90) amounted to 5.8 µg/mL (≈ 7.88 µM).

A further assay concerns SK-OV-3 (ovarian cancer) cells. Put plainly: MTT cell growth inhibition, solid tumor cells. Type of assay: cell-based, human. Particulars: Homo sapiens; SK-OV-3, 72 h, MTT; read-out: IC50. In outline: as §1
With `C=CCN(C)CC(O)COc1c(OC)cc2c3c1Oc1cc4c(cc1OC)CCN(C)[C@H]4Cc1ccc(cc1)Oc1cc(ccc1OC)C[C@@H]3N(C)CC2` (stereo partly drawn) [BS-FC-409], the IC50 was determined as 2.82 µg/mL (≈ 3.83 µM).

Staying with this assay, now noted: Homo sapiens; SK-OV-3, 72 h, MTT; read-out: IC90.
As to `C=CCN(C)CC(O)COc1c(OC)cc2c3c1Oc1cc4c(cc1OC)CCN(C)[C@H]4Cc1ccc(cc1)Oc1cc(ccc1OC)C[C@@H]3N(C)CC2` (stereo partly drawn) [BS-FC-409], the concentration for an effect of 90% (IC90) is 9.85 µg/mL (≈ 13.4 µM).

In the next assay the test system is Becap-37 (human breast cancer) cells. Put plainly: MTT cell growth inhibition, solid tumor cells. Particulars: Homo sapiens; Becap-37, 72 h, MTT; read-out: IC50. It counts as cell-based. In outline:
as §1
In the case of `C=CCN(C)CC(O)COc1c(OC)cc2c3c1Oc1cc4c(cc1OC)CCN(C)[C@H]4Cc1ccc(cc1)Oc1cc(ccc1OC)C[C@@H]3N(C)CC2` (stereo partly drawn) [BS-FC-409], the IC50 was 1.44 µg/mL (≈ 1.96 µM).

Staying with this assay, now noted: Homo sapiens; Becap-37, 72 h, MTT; read-out: IC90.
Regarding `C=CCN(C)CC(O)COc1c(OC)cc2c3c1Oc1cc4c(cc1OC)CCN(C)[C@H]4Cc1ccc(cc1)Oc1cc(ccc1OC)C[C@@H]3N(C)CC2` (stereo partly drawn) [BS-FC-409], the IC90 was 4.8 µg/mL (≈ 6.52 µM).

A further assay has as its system Hela (human cervical cancer) cells. Put plainly: MTT cell growth inhibition, solid tumor cells. Type of assay: cell-based. The conditions noted are these: Homo sapiens; Hela, 72 h, MTT; read-out: IC50. Summed up:
as §1
Take `C=CCN(C)CC(O)COc1c(OC)cc2c3c1Oc1cc4c(cc1OC)CCN(C)[C@H]4Cc1ccc(cc1)Oc1cc(ccc1OC)C[C@@H]3N(C)CC2` (stereo partly drawn) [BS-FC-409]: the concentration for half-maximal inhibition (IC50) was determined as 1.05 µg/mL (≈ 1.43 µM).

The assay is the same for the next values; noted with them: Homo sapiens; Hela, 72 h, MTT; read-out: IC90.
In the case of `C=CCN(C)CC(O)COc1c(OC)cc2c3c1Oc1cc4c(cc1OC)CCN(C)[C@H]4Cc1ccc(cc1)Oc1cc(ccc1OC)C[C@@H]3N(C)CC2` (stereo partly drawn) [BS-FC-409], the IC90 was found to be 3.52 µg/mL (≈ 4.78 µM).

In a further assay the test system is Hep G2 (human liver cancer) cells. In words: MTT cell growth inhibition, solid tumor cells. Type of assay: cell-based. Particulars: Homo sapiens, HepG2; Hep G2, 72 h, MTT; read-out: IC50. Summed up: as §1
For the compound `C=CCN(C)CC(O)COc1c(OC)cc2c3c1Oc1cc4c(cc1OC)CCN(C)[C@H]4Cc1ccc(cc1)Oc1cc(ccc1OC)C[C@@H]3N(C)CC2` (stereo partly drawn) [BS-FC-409], the IC50 is 1.27 µg/mL (≈ 1.73 µM).

The assay is the same for the next values; noted with them: Homo sapiens, HepG2; Hep G2, 72 h, MTT; read-out: IC90.
As to `C=CCN(C)CC(O)COc1c(OC)cc2c3c1Oc1cc4c(cc1OC)CCN(C)[C@H]4Cc1ccc(cc1)Oc1cc(ccc1OC)C[C@@H]3N(C)CC2` (stereo partly drawn) [BS-FC-409], the 90% effect concentration (IC90) was determined as 3.24 µg/mL (≈ 4.4 µM).

The next assay has as its system MG-63 (osteosarcoma) cells. In words: MTT cell growth inhibition, solid tumor cells. It counts as cell-based. Particulars: Homo sapiens; MG-63, 72 h, MTT; read-out: IC50. Summed up:
as §1
Regarding `C=CCN(C)CC(O)COc1c(OC)cc2c3c1Oc1cc4c(cc1OC)CCN(C)[C@H]4Cc1ccc(cc1)Oc1cc(ccc1OC)C[C@@H]3N(C)CC2` (stereo partly drawn) [BS-FC-409], the IC50 is 1.1 µg/mL (≈ 1.49 µM).

The same assay, now with this note: Homo sapiens; MG-63, 72 h, MTT; read-out: IC90.
In the case of `C=CCN(C)CC(O)COc1c(OC)cc2c3c1Oc1cc4c(cc1OC)CCN(C)[C@H]4Cc1ccc(cc1)Oc1cc(ccc1OC)C[C@@H]3N(C)CC2` (stereo partly drawn) [BS-FC-409], the concentration for an effect of 90% (IC90) was 1.99 µg/mL (≈ 2.7 µM).

The test system of a further assay is RKO (human colon adenocarcinoma) cells. Put plainly: MTT cell growth inhibition, solid tumor cells. It counts as cell-based. Particulars: Homo sapiens; RKO, 72 h, MTT; read-out: IC50. Summed up:
as §1
As for `C=CCN(C)CC(O)COc1c(OC)cc2c3c1Oc1cc4c(cc1OC)CCN(C)[C@H]4Cc1ccc(cc1)Oc1cc(ccc1OC)C[C@@H]3N(C)CC2` (stereo partly drawn) [BS-FC-409], the IC50 was found to be 0.65 µg/mL (≈ 0.883 µM).

Still in this assay, the particulars now being: Homo sapiens; RKO, 72 h, MTT; read-out: IC90.
As for `C=CCN(C)CC(O)COc1c(OC)cc2c3c1Oc1cc4c(cc1OC)CCN(C)[C@H]4Cc1ccc(cc1)Oc1cc(ccc1OC)C[C@@H]3N(C)CC2` (stereo partly drawn) [BS-FC-409], the IC90 came out at 1.27 µg/mL (≈ 1.73 µM).

The test system of another assay is U87-MG (malignant glioma) cells. In words: MTT cell growth inhibition, solid tumor cells. Particulars: Homo sapiens, U-87 MG; U87-MG, 72 h, MTT; read-out: IC50. It counts as cell-based. Summed up:
as §1
For `C=CCN(C)CC(O)COc1c(OC)cc2c3c1Oc1cc4c(cc1OC)CCN(C)[C@H]4Cc1ccc(cc1)Oc1cc(ccc1OC)C[C@@H]3N(C)CC2` (stereo partly drawn) [BS-FC-409], the IC50 was determined as 1.07 µg/mL (≈ 1.45 µM).

Staying with this assay, now noted: Homo sapiens, U-87 MG; U87-MG, 72 h, MTT; read-out: IC90.
Consider `C=CCN(C)CC(O)COc1c(OC)cc2c3c1Oc1cc4c(cc1OC)CCN(C)[C@H]4Cc1ccc(cc1)Oc1cc(ccc1OC)C[C@@H]3N(C)CC2` (stereo partly drawn) [BS-FC-409], for which the 90% effect concentration (IC90) stood at 2.68 µg/mL (≈ 3.64 µM).

Another assay has as its system tumor. In words: Antitumor activity compared with fangchinoline, overall statement. Type of assay: cell-based. The conditions noted are these: tumor type not specified.
Turning to `C=CCN(C)CC(O)COc1c(OC)cc2c3c1Oc1cc4c(cc1OC)CCN(C)[C@H]4Cc1ccc(cc1)Oc1cc(ccc1OC)C[C@@H]3N(C)CC2` (stereo partly drawn) [BS-FC-409], the “antitumor activity compared with that of fangchinoline” value was “significantly superior”.
